In ChEMBL document CHEMBL3352675, “Synthetic ω-3 epoxyfatty acids as antiproliferative and pro-apoptotic agents in human breast cancer cells” (2014):
Active and inactive are the calls of the source. No cut-off for these calls is given here.

Assays:
MDA-MB-468 [1] = test: Reduction in ATP production in human MDA-MB-468 cells at 1 to 40 uM after 48 to 120 hrs; format: functional, cell-based
MDA-MB-231 [2] = test: Reduction in cyclin D1 immunoreactive protein expression in human MDA-MB-231 cells assessed as cyclin D1 level at 40 uM after 48 hrs; format: functional; parameters: scale not given: the % may be the effect or the level left
[3] = molecular target: c-Jun N-terminal kinase, JNK (Homo sapiens) (UniProt P45983+P53779+P45984); test: Induction of JNK phosphorylation in human MDA-MB-231 cells at 40 uM after 48 hrs; format: cell-based
MDA-MB-231 [4] = test: Antiproliferative activity against human MDA-MB-231 cells assessed as reduction in confluence at 10 uM after 48 hrs by crystal violet staining method; format: functional, cell-based
MDA-MB-231 [5] = test: Induction of cell cycle arrest in human MDA-MB-231 cells assessed as increase in cell accumulation at […] phase at 40 uM after 48 hrs by flow cytometry; format: functional
MDA-MB-231 [6] = test: Induction of apoptosis in human MDA-MB-231 cells at 40 uM after 48 hrs by Annexin V-FITC and propidium iodide staining method; format: functional
T47D [7] = test: Reduction in ATP production in human T47D cells at 1 to 40 uM after 48 to 120 hrs; format: functional, cell-based
MDA-MB-468 [8] = test: Antiproliferative activity against human MDA-MB-468 cells assessed as reduction in confluence at 10 uM after 48 hrs by crystal violet staining method; format: functional, cell-based
MDA-MB-231 [9] = test: Induction of cell cycle arrest in human MDA-MB-231 cells assessed as reduction in cell accumulation at S phase at 40 uM after 48 hrs by flow cytometry; format: functional; conditions: MDA-MB-231, 48 h
MDA-MB-231 [10] = test: Induction of apoptosis in human MDA-MB-231 cells assessed as increase in caspase 3 activity at 40 uM after 48 hrs; format: functional, cell-based
MDA-MB-231 [11] = test: Induction of cell cycle arrest in human MDA-MB-231 cells assessed as reduction in cell accumulation at G2/M phase at 40 uM after 48 hrs by flow cytometry; format: functional; conditions: MDA-MB-231, 48 h
T47D [12] = test: Antiproliferative activity against human T47D cells assessed as reduction in confluence at 10 uM after 48 hrs by crystal violet staining method; format: functional, cell-based
MDA-MB-231 [13] = test: Antiproliferative activity against human MDA-MB-231 cells assessed as reduction in confluence at 10 uM measured over 120 hrs by crystal violet staining method; format: functional, cell-based
MDA-MB-231 [14] = test: Reduction in cell viability in human MDA-MB-231 cells at 1 to 40 uM after 48 to 120 hrs; format: functional, cell-based
MDA-MB-231 [15] = test: Increase in ATP production in human MDA-MB-231 cells at 40 uM after 48 to 120 hrs; format: functional, cell-based
T47D [16] = test: Reduction in ATP production in human T47D cells at 40 uM after 48 hrs; format: functional, cell-based
T47D [17] = test: Antiproliferative activity against human T47D cells assessed as reduction in confluence at 40 uM after 48 hrs by crystal violet staining method; format: functional, cell-based
MDA-MB-231 [18] = test: Antiproliferative activity against human MDA-MB-231 cells assessed as reduction in confluence at >40 uM after 120 hrs by crystal violet staining method; format: functional, cell-based
MDA-MB-468 [19] = test: Reduction in ATP production in human MDA-MB-468 cells at 40 uM after 48 hrs; format: functional, cell-based
MDA-MB-231 [20] = test: Reduction in ATP production in human MDA-MB-231 cells assessed as ATP level at 40 uM after 48 hrs relative to untreated control; format: functional; parameters: scale not given: the % may be the effect or the level left
MDA-MB-231 [21] = test: Antiproliferative activity against human MDA-MB-231 cells assessed as reduction in confluence at 40 uM after 48 hrs by crystal violet staining method; format: functional, cell-based
MDA-MB-468 [22] = test: Antiproliferative activity against human MDA-MB-468 cells assessed as reduction in confluence at 40 uM after 48 hrs by crystal violet staining method; format: functional, cell-based
MDA-MB-231 [23] = test: Induction of apoptosis in human MDA-MB-231 cells assessed as early apoptosis cells level at 40 uM after 48 hrs by Annexin V-FITC and propidium iodide staining method (reference value: 0.5 %); format: functional
MDA-MB-231 [24] = test: Induction of apoptosis in human MDA-MB-231 cells assessed as late apoptosis cells level at 40 uM after 48 hrs by Annexin V-FITC and propidium iodide staining method (reference value: 3.7%); format: functional
MDA-MB-231 [25] = test: Induction of apoptosis in human MDA-MB-231 cells assessed as necrosis cells level at 40 uM after 48 hrs by Annexin V-FITC and propidium iodide staining method (reference value: 3.3%); format: functional
MDA-MB-231 [26] = test: Induction of apoptosis in human MDA-MB-231 cells assessed as viable cells level at 40 uM after 48 hrs by Annexin V-FITC and propidium iodide staining method (reference value: 92.6%); format: functional
MDA-MB-231 [27] = test: Reduction in ATP production in human MDA-MB-231 cells at 40 uM after 120 hrs relative to untreated control; format: functional, cell-based
MDA-MB-231 [28] = test: Induction of apoptosis in human MDA-MB-231 cells assessed as increase in caspase 3 activity at 40 uM after 48 hrs in presence of JNK gene silencing RNA; format: functional, cell-based
MDA-MB-231 [29] = test: Reduction in cell viability in human MDA-MB-231 cells at 1 to 40 uM after 48 to 120 hrs in presence of JNK gene silencing RNA; format: functional, cell-based
MDA-MB-231 [30] = test: Reduction in ATP production in human MDA-MB-231 cells assessed as ATP level at 40 uM after 120 hrs relative to untreated control; format: functional; parameters: scale not given: the % may be the effect or the level left
MDA-MB-231 [31] = test: Reduction in cell viability in human MDA-MB-231 cells at 1 to 40 uM after 48 to 120 hrs in presence of JNK inhibitor […]; format: functional, cell-based
MDA-MB-231 [32] = test: Induction of apoptosis in human MDA-MB-231 cells assessed as increase in caspase 3 activity at 40 uM after 48 hrs in presence of JNK inhibitor […]; format: functional, cell-based
MDA-MB-231 [33] = test: Reduction in ATP production in human MDA-MB-231 cells at 20 uM after 48 to 120 hrs in presence of 10 uM AUDA; format: functional, cell-based
MDA-MB-231 [34] = test: Reduction in ATP production in human MDA-MB-231 cells at 10 uM after 48 to 120 hrs in presence of 10 uM AUDA; format: functional, cell-based

CC[C@H]1O[C@H]1CCCCCCCCCCCCCCCCC(=O)O (relative stereo)
Activity (MDA-MB-468 [1]): inactive
Activity (MDA-MB-231 [2]): 24%
Activity [3]: Active
inhibition (MDA-MB-231 [4]): Active
Activity (MDA-MB-231 [5]): 12%
fold change (FC) (MDA-MB-231 [6]): 5
Activity (T47D [7]): inactive
inhibition (MDA-MB-468 [8]): Active
inhibition at 40 µM (MDA-MB-231 [9]): 33%
Activity (MDA-MB-231 [10]): Active
inhibition at 40 µM (MDA-MB-231 [11]): 30%
inhibition (T47D [12]): inactive
inhibition (MDA-MB-231 [13]): Active

CCCCCCCC[C@@H]1O[C@@H]1CCCCCCCCCC(=O)O (relative stereo)
Activity (MDA-MB-231 [14]): inactive
Activity (MDA-MB-231 [10]): inactive
Activity (MDA-MB-231 [15]): Active

CCNC(=O)NCCCCCCCCCCCCCCCCC(=O)O
Activity (T47D [16]): inactive
Activity (MDA-MB-231 [2]): inactive
Activity [3]: inactive
inhibition (T47D [17]): inactive
Activity (MDA-MB-231 [5]): 6%
Activity (MDA-MB-231 [6]): inactive
inhibition (MDA-MB-231 [18]): Active
Activity (MDA-MB-468 [19]): inactive
Activity (MDA-MB-231 [20]): 72%
inhibition at 40 µM (MDA-MB-231 [9]): 21%
Activity (MDA-MB-231 [10]): Active
inhibition at 40 µM (MDA-MB-231 [11]): 9%
inhibition (MDA-MB-231 [21]): inactive
inhibition (MDA-MB-468 [22]): inactive

CCNC(=O)NCCCCCCCCCCCCCCCC(=O)O
Activity (T47D [16]): inactive
Activity (MDA-MB-231 [2]): inactive
Activity (MDA-MB-231 [23]): 1.6%
Activity [3]: inactive
inhibition (T47D [17]): inactive
Activity (MDA-MB-231 [24]): 8.4%
Activity (MDA-MB-231 [5]): 6%
Activity (MDA-MB-231 [6]): inactive
inhibition (MDA-MB-231 [18]): Active
Activity (MDA-MB-468 [19]): inactive
Activity (MDA-MB-231 [20]): 72%
inhibition at 40 µM (MDA-MB-231 [9]): 21%
Activity (MDA-MB-231 [10]): Active
inhibition at 40 µM (MDA-MB-231 [11]): 9%
inhibition (MDA-MB-231 [21]): inactive
Activity (MDA-MB-231 [25]): 7.3%
Activity (MDA-MB-231 [26]): 82.6%
inhibition (MDA-MB-468 [22]): inactive

CCCCC[C@@H]1O[C@@H]1CCCCCCCCCCCCC(=O)O (relative stereo)
Activity (MDA-MB-231 [14]): inactive
Activity (MDA-MB-231 [10]): inactive

CC(C)(C)NC(=O)NCCCCCCCCCCCCCCCC(=O)O
Activity (MDA-MB-231 [20]): inactive
Activity (MDA-MB-231 [10]): Active

CC[C@@H]1O[C@@H]1CCCCCCCCCCCCCCCCCC(=O)O (relative stereo)
Activity (MDA-MB-468 [1]): inactive
Activity (MDA-MB-231 [2]): 47%
Activity [3]: Active
inhibition (MDA-MB-231 [4]): Active
Activity (MDA-MB-231 [5]): 15%
Activity (MDA-MB-231 [6]): inactive
Activity (T47D [7]): inactive
inhibition (MDA-MB-468 [8]): Active
inhibition at 40 µM (MDA-MB-231 [9]): 42%
Activity (MDA-MB-231 [10]): inactive
inhibition at 40 µM (MDA-MB-231 [11]): 19%
inhibition (T47D [12]): inactive
inhibition (MDA-MB-231 [13]): Active

CCNC(=O)OCCCCCCCCCCCCCCCC(=O)O
Activity (MDA-MB-231 [27]): inactive
Activity (MDA-MB-231 [10]): Active

CCNC(=O)NCCCCCCCCCCCCCCCCCC(=O)O
Activity (T47D [16]): inactive
Activity (MDA-MB-231 [2]): inactive
Activity [3]: inactive
inhibition (T47D [17]): inactive
Activity (MDA-MB-231 [5]): 6%
Activity (MDA-MB-231 [6]): inactive
inhibition (MDA-MB-231 [18]): Active
Activity (MDA-MB-468 [19]): inactive
Activity (MDA-MB-231 [20]): 72%
inhibition at 40 µM (MDA-MB-231 [9]): 21%
Activity (MDA-MB-231 [10]): Active
inhibition at 40 µM (MDA-MB-231 [11]): 9%
inhibition (MDA-MB-231 [21]): inactive
inhibition (MDA-MB-468 [22]): inactive

CCCC(=O)NCCCCCCCCCCCCCCCC(=O)O
Activity (MDA-MB-231 [27]): inactive
Activity (MDA-MB-231 [10]): inactive

CCCCNC(=O)NCCCCCCCCCCCCCCCC(=O)O
Activity (MDA-MB-231 [20]): inactive
Activity (MDA-MB-231 [10]): Active

CC[C@@H]1O[C@@H]1CCCCCCCCCCCCCCCC(=O)O (relative stereo)
Activity (MDA-MB-231 [28]): inactive
Activity (MDA-MB-468 [1]): Active
Activity (MDA-MB-231 [2]): 23%
Activity (MDA-MB-231 [23]): 4.1%
Activity (MDA-MB-231 [29]): inactive
Activity [3]: Active
inhibition (MDA-MB-231 [4]): Active
Activity (MDA-MB-231 [24]): 39.2%
Activity (MDA-MB-231 [5]): 22%
fold change (FC) (MDA-MB-231 [6]): 5
Activity (MDA-MB-231 [30]): 3.2%
Activity (MDA-MB-231 [31]): inactive
Activity (T47D [7]): Active
inhibition (MDA-MB-468 [8]): Active
Activity (MDA-MB-231 [32]): inactive
Activity (MDA-MB-231 [20]): 45%
inhibition at 40 µM (MDA-MB-231 [9]): 49%
Activity (MDA-MB-231 [10]): Active
inhibition at 40 µM (MDA-MB-231 [11]): 38%
Activity (MDA-MB-231 [33]): inactive
Activity (MDA-MB-231 [25]): 29.4%
Activity (MDA-MB-231 [26]): 27.3%
Activity (MDA-MB-231 [34]): Active
inhibition (T47D [12]): inactive
inhibition (MDA-MB-231 [13]): Active

CCCNC(=O)NCCCCCCCCCCCCCCCC(=O)O
Activity (MDA-MB-231 [20]): inactive
Activity (MDA-MB-231 [10]): inactive
